Literature values in patent US20140051733A1, “FEBUXOSTAT PHARMACEUTICAL COMPOSITIONS” (Dr. Reddy's Laboratories Ltd., priority 2012, published 2014).
Read-outs that look alike come from different tables or passages of the source.

Key:
[1] = Class 2 = low solubility, high permeability

- solubility (in acetonitrile): slightly soluble
- solubility (in dimethylformamide): freely soluble
- solubility (in dimethylsulfoxide): soluble
- solubility (in ethanol): sparingly soluble
- solubility (in methanol): slightly soluble
- solubility (in water): practically insoluble
- Biopharmaceutics Classification System class [1]: Class 2
Structure (SMILES): Cc1nc(-c2ccc(OCC(C)C)c(C#N)c2)sc1C(=O)O [Febuxostat, 2-[3-cyano-4-(2-methylpropoxy)phenyl]-4-methylthiazole-5-carboxylic acid]
